Data reported in ChEMBL document CHEMBL1201862, “PubChem BioAssay data set” (2004).
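96-well plates; 48 h exposure; 5 concentrations. Endpoints by linear interpolation between flanking doses. Not reached: highest tested concentration assigned. GI50 is the concentration that inhibits growth by half.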 Activity calls are given as the source filed them. Rule as the data show it: active = GI50 up to about 1.1 µM and inactive = higher.

Columns and labels:
Experiment in all cases: NCI anticancer screen, dose series, 48 h
HCC 2998 = system: HCC 2998
HCT-15 = system: HCT-15
PC-3 = system: PC-3
HOP-62 = system: HOP-62
IGROV-1 = system: IGROV-1
RPMI-8226 = system: RPMI-8226
UACC-62 = system: UACC-62
T47D = system: T47D
U-251 = system: U-251
MDA-MB-231 = system: MDA-MB-231
UACC-257 = system: UACC-257
BT-549 = system: BT-549
SNB-75 = system: SNB-75
SF-539 = system: SF-539
SN12C = system: SN12C
MOLT-4 = system: MOLT-4
786-0 = system: 786-0
SK-OV-3 = system: SK-OV-3
CCRF-CEM = system: CCRF-CEM
OVCAR-4 = system: OVCAR-4

Compound | GI50 (HCC 2998) | GI50 (HCT-15) [µM] | GI50 (PC-3) | GI50 (HOP-62) | GI50 (IGROV-1) | GI50 (RPMI-8226) | GI50 (UACC-62) | GI50 (T47D) | GI50 (U-251) | GI50 (MDA-MB-231) | GI50 (UACC-257) | GI50 (BT-549) | GI50 (SNB-75) | GI50 (SF-539) | GI50 (SN12C) | GI50 (MOLT-4) | GI50 (786-0) | GI50 (SK-OV-3) | GI50 (CCRF-CEM) | GI50 (OVCAR-4)
Nc1c(C(=O)Nc2ccc([As](=O)(O)O)cc2)cnc2nnnn12 | > 100 µM (inactive) | > 100 | > 100 µM (inactive) | > 100 µM (inactive) | > 100 µM (inactive) | > 100 µM (inactive) | > 100 µM (inactive) | > 100 µM (inactive) | > 100 µM (inactive) | > 100 µM (inactive) | > 100 µM (inactive) | > 100 µM (inactive) | > 100 µM (inactive) | > 100 µM (inactive) | > 100 µM (inactive) | > 100 µM (inactive) | > 100 µM (inactive) | > 100 µM (inactive) | > 100 µM (inactive) | > 100 µM (inactive)
CCOC(=O)C1=CN/C(=C(/C)C(=O)OC)SC1C(=O)OCC (stereo not given) | > 100 µM (inactive) | > 100 | 69.7 µM (inactive) | > 100 µM (inactive) | > 100 µM (inactive) | 68.9 µM (inactive) | > 100 µM (inactive) | 57.9 µM (inactive) | > 100 µM (inactive) | > 100 µM (inactive) | > 100 µM (inactive) | > 90.6 µM (inactive) | > 100 µM (inactive) | > 100 µM (inactive) | > 100 µM (inactive) | 25.6 µM (inactive) | > 100 µM (inactive) | > 100 µM (inactive) | > 61 µM (inactive) | > 100 µM (inactive)
CN(C)c1ccc(C2ON=C(c3ccccc3)N2C23CC4CC(CC(C4)C2)C3)cc1 (stereo not given) | > 10 µM (inactive) | > 10 | > 10 µM (inactive) | > 10 µM (inactive) | > 10 µM (inactive) | > 10 µM (inactive) | > 10 µM (inactive) | > 10 µM (inactive) | > 10 µM (inactive) | > 10 µM (inactive) | > 10 µM (inactive) | > 10 µM (inactive) | > 10 µM (inactive) | > 10 µM (inactive) | > 10 µM (inactive) | 5.87 µM (inactive) | > 10 µM (inactive) | > 10 µM (inactive) | > 10 µM (inactive) | > 10 µM (inactive)
C=C1C(=O)OC2CC(C)C3C=CC(=O)C3CC12 (stereo not given) | 4.73 µM (inactive) | 1.85 | 2.37 µM (inactive) | 15.9 µM (inactive) | 3.62 µM (inactive) | 1.71 µM (inactive) | 1.71 µM (inactive) | 2.34 µM (inactive) | 6.76 µM (inactive) | 1.89 µM (inactive) | 2.02 µM (inactive) | 2.64 µM (inactive) | 5.51 µM (inactive) | 2.08 µM (inactive) | 2.02 µM (inactive) | 1.5 µM (inactive) | 1.76 µM (inactive) | 16.1 µM (inactive) | 0.428 µM (active) | 2.95 µM (inactive)
Cc1cccc(NC(=O)O/N=C(\Cl)C(C)C)c1 | 19.1 µM (inactive) | 2.25 | 16.7 µM (inactive) | 19 µM (inactive) | 17.5 µM (inactive) | 2.96 µM (inactive) | 15.9 µM (inactive) | 6.82 µM (inactive) | 20.7 µM (inactive) | 17.9 µM (inactive) | 17.3 µM (inactive) | 5.45 µM (inactive) | 18.1 µM (inactive) | 6.21 µM (inactive) | 3.37 µM (inactive) | 2.15 µM (inactive) | 2 µM (inactive) | 17.7 µM (inactive) | 0.847 µM (active) | 14 µM (inactive)
COc1cc2c(cc1OC)C1(c3ccccc3)CN(C2)Cc2cc(OC)c(OC)cc21 | 21.8 µM (inactive) | 24.3 | 31.3 µM (inactive) | 40.6 µM (inactive) | 35.2 µM (inactive) | 26 µM (inactive) | 32.3 µM (inactive) | 35.6 µM (inactive) | 22.2 µM (inactive) | 24.3 µM (inactive) | 40.2 µM (inactive) | 29.8 µM (inactive) | 27.9 µM (inactive) | 19.3 µM (inactive) | > 100 µM (inactive) | 25.5 µM (inactive) | 31.6 µM (inactive) | 45.8 µM (inactive) | 15.6 µM (inactive) | 23.3 µM (inactive)
Nc1nn2c(nc(N)c3c(N)n[nH]c32)c1/N=N\c1ccc(Br)cc1 | > 100 µM (inactive) | > 91.8 | > 100 µM (inactive) | 42.9 µM (inactive) | 81.8 µM (inactive) | > 100 µM (inactive) | > 100 µM (inactive) | 1.76 µM (inactive) | 6.01 µM (inactive) | 0.524 µM (active) | 26.7 µM (inactive) | 2.92 µM (inactive) | 18.1 µM (inactive) | 15.1 µM (inactive) | 7.76 µM (inactive) | 3.53 µM (inactive) | 40.9 µM (inactive) | > 100 µM (inactive) | 2.1 µM (inactive) | 16.4 µM (inactive)
NC(=O)CCSC(CC(=O)c1ccc(Cl)cc1)c1ccc(Cl)cc1 (stereo not given) | 18.2 µM (inactive) | 10.5 | 34.6 µM (inactive) | 28.1 µM (inactive) | 16.2 µM (inactive) | 2.21 µM (inactive) | 16.8 µM (inactive) | 19.1 µM (inactive) | 16.2 µM (inactive) | 40.2 µM (inactive) | 27.7 µM (inactive) | 36.1 µM (inactive) | 40.1 µM (inactive) | 19.7 µM (inactive) | 28.2 µM (inactive) | 10.4 µM (inactive) | 30 µM (inactive) | 38.1 µM (inactive) | 2.93 µM (inactive) | 16.8 µM (inactive)
CCCCCCc1ccc(C(=O)NO)cc1 | 65.2 µM (inactive) | 12.6 | 31.8 µM (inactive) | 34.2 µM (inactive) | 24.5 µM (inactive) | 12.6 µM (inactive) | 24.9 µM (inactive) | 19.5 µM (inactive) | 38.8 µM (inactive) | 95.7 µM (inactive) | 44.7 µM (inactive) | 28.6 µM (inactive) | 42.9 µM (inactive) | 49.8 µM (inactive) | 21.9 µM (inactive) | 11.7 µM (inactive) | 13.7 µM (inactive) | 40.2 µM (inactive) | 6.92 µM (inactive) | 20.4 µM (inactive)
O=C1OI(C#Cc2ccccc2)c2ccccc21 | 6.58 µM (inactive) | 3.18 | 4.54 µM (inactive) | 6.41 µM (inactive) | 2.14 µM (inactive) | 1.57 µM (inactive) | 5.04 µM (inactive) | 3.16 µM (inactive) | 2.62 µM (inactive) | 6.1 µM (inactive) | 5.2 µM (inactive) | 2.88 µM (inactive) | 3.89 µM (inactive) | 2.16 µM (inactive) | 4.16 µM (inactive) | 1.63 µM (inactive) | 3.11 µM (inactive) | 12.2 µM (inactive) | 0.355 µM (active) | 3.93 µM (inactive)
CC(=O)NCCc1c[nH]c2ccc(Cl)cc12 | 74.8 µM (inactive) | > 100 | > 100 µM (inactive) | > 100 µM (inactive) | > 100 µM (inactive) | > 100 µM (inactive) | > 100 µM (inactive) | > 100 µM (inactive) | > 100 µM (inactive) | > 100 µM (inactive) | > 100 µM (inactive) | 25 µM (inactive) | 33.4 µM (inactive) | > 100 µM (inactive) | > 100 µM (inactive) | > 100 µM (inactive) | > 100 µM (inactive) | > 100 µM (inactive) | 60.4 µM (inactive) | > 100 µM (inactive)
O=C(/C=C/c1ccc(O)c(O)c1)O[C@H]1CCCC[C@@H]1OC(=O)/C=C/c1ccc(O)c(O)c1 | 11.2 µM (inactive) | 6.73 | 15.6 µM (inactive) | 9.77 µM (inactive) | 4.9 µM (inactive) | 9.18 µM (inactive) | 8.09 µM (inactive) | 16.2 µM (inactive) | 14.8 µM (inactive) | 20.5 µM (inactive) | 15.6 µM (inactive) | 17.5 µM (inactive) | 17.8 µM (inactive) | 11.1 µM (inactive) | 13.6 µM (inactive) | 3.85 µM (inactive) | 7.48 µM (inactive) | 15.8 µM (inactive) | 4.8 µM (inactive) | 17.9 µM (inactive)
